Like-named read-outs stand apart in the source and are kept apart here. No end group written: not given here.
Target: T1, human TAS1R2-WT/TAS1R3-M110T (Homo sapiens, UniProt Q7RTX0+Q8TE23, M110T)
T1 construct: expressed in transfected cells; host or cells: HEK293T stably expressing Gα16gust44
T1 sequence (Q8TE23 20-839): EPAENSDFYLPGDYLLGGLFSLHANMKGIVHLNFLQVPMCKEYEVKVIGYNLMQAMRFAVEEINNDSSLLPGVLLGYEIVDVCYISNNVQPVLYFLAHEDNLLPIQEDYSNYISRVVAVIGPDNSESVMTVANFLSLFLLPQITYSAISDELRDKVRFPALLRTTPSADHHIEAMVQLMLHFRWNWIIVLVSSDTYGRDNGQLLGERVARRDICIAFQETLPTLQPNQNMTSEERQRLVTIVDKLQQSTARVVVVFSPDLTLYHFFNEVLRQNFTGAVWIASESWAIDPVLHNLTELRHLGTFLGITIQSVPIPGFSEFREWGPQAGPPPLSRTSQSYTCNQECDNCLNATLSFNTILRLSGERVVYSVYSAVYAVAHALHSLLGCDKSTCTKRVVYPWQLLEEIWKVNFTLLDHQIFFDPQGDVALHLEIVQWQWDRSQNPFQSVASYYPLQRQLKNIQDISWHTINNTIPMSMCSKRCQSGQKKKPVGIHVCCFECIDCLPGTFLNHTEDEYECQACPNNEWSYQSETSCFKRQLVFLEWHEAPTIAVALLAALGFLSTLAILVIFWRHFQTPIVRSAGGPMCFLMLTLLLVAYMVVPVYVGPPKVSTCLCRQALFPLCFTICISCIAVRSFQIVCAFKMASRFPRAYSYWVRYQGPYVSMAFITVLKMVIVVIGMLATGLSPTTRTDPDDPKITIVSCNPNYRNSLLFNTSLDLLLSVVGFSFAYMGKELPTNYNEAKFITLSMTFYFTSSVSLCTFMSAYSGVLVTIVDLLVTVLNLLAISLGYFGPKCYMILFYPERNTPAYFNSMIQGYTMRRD
T1 sequence (Q7RTX0 21-852 M110T): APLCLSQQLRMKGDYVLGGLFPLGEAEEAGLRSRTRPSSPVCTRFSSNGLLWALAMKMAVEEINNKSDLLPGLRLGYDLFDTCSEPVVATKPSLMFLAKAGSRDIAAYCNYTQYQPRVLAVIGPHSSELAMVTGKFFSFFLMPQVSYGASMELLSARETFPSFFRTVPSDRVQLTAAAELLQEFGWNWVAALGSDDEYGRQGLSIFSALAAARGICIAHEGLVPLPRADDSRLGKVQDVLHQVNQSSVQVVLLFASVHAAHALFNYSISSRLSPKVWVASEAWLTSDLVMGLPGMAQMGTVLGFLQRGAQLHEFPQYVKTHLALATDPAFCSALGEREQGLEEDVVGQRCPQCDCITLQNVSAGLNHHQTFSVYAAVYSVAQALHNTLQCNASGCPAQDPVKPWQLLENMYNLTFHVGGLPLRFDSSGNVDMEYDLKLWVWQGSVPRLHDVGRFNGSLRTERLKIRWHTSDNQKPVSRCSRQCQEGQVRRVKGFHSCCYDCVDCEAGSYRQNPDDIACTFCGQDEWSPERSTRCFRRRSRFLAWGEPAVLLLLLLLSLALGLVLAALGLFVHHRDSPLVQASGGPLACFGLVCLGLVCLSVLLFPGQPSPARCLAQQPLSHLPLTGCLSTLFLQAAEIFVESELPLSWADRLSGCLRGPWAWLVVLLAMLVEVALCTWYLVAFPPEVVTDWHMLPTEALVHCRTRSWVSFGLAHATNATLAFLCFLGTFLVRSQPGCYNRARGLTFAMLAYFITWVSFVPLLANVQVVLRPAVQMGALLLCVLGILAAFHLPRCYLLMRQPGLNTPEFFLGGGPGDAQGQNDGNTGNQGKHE
Assay: Calcium mobilisation assay, TAS1R2-WT with TAS1R3 variant M110T
Format: cell-based
Settings: for Max ΔF/F0: maximal signal amplitude
From the text: The coding sequences for TAS1R2 and TAS1R3 were commercially synthesised, and the human codon was optimised for expression in human cells. The coding sequences of human TAS1R2 and TAS1R3 were subcloned and inserted into the mammalian expression vectors pcDNA6/myc-HisA and pcDNA4/myc-HisA (Invitrogen; Thermo Fisher Scientific; Illkirch, France) between the EcoRI and NotI restriction sites, generating the plasmids pcDNA6-TAS1R2 and pcDNA4-TAS1R3, respectively. To increase protein expression in mammalian cells, an upstream start codon was used, which was a sequence called MAX, corresponding to the QBI SP163 element also described in pcDNA4-HisMax (Invitrogen; Thermo Fisher Scientific; Illkirch, France). To measure the expression level of the receptor by immunohistochemistry, we used the FLAG sequence ([…]) in the C-terminal position, which encodes the FLAG tag epitope. SNP variants of TAS1R2 and TAS1R3 were constructed based on […], respectively, using site-directed mutagenesis (Genewiz; Leipzig, Germany).
The HEK293T cells were kindly provided by Jay P. Slack (Givaudan Flavors Corporation; Cincinnati, OH, USA). HEK293T cells stably transfected with Gα16gust44 [43, 67] were seeded in poly-D-lysine-coated clear-bottom black 96-well plates (0.35 × 10^5 cells/well) in high-glucose DMEM supplemented with 2 mM GlutaMAX, 10% dialysed foetal bovine serum with penicillin/streptomycin and G418 (400 μg/mL) at 37 °C and 6.3% CO2 in a humidified atmosphere as previously reported. […] As a negative control, HEK293T cells were mock-transfected with the empty expression vector. After a further 24 h of incubation, the HEK293T cells were washed with C1 buffer (130 mM NaCl, 5 mM KCl, 10 mM HEPES pH 7.4 and 2 mM CaCl2). The 96-well plates containing the cells were then stimulated with sweet-tasting compounds. […] Different concentration ranges were tested depending on the sweet compound injected. The Ca^2+ changes were expressed as fractional changes in fluorescent light intensity: ΔF/F = (F − F0)/F0, where F was the fluorescent light intensity at each point, and F0 was the value of emitted fluorescent light prior to stimulus application. To calculate dose–response relationships, the changes in fluorescence upon stimulus application were averaged, mock-subtracted and baseline-corrected. The dose–response data obtained were adjusted using a 4-parameter logistic equation. The half-maximal effective concentrations (EC50 values) and maximal signal amplitudes were calculated using SigmaPlot software (version 15.0) (Systat Software; San Jose, CA, USA).
For in vitro calcium mobilisation assay performed on hTAS1R2-SNPs, hTAS1R3-SNPs and mTAS1R3-I60T, 6 to 7 concentrations were tested for each sweet compound, plus buffer alone. All concentration–receptor combinations were measured in duplicate, and each experiment was repeated at least 4 times (8 wells/concentration). Results were expressed for each concentration as ΔF/F mean ± SEM and represented as dose–response curves.

| Molecule | R1 = Variant EC50/WT EC50 | Max ΔF/F0 | EC50 (read-out: EC50) [µM] | EC50 (brazzein) [µg/mL] |
| --- | --- | --- | --- | --- |
| CC1=CC(=O)NS(=O)(=O)O1 [Acesulfame K, acesulfame K] | 1.7 | 0.20 ± 0.01 | 1060 ± 648 | – |
| O=S(=O)(O)NC1CCCCC1 [Cyclamate, cyclamate] | – | – | 2620 ± 98 | – |
| C[C@H](CC[C@@H](O[C@@H]1O[C@H](CO[C@@H]2O[C@H](CO)[C@@H](O)[C@H](O)[C@H]2O)[C@@H](O)[C@H](O)[C@H]1O[C@@H]1O[C@H](CO)[C@@H](O)[C@H](O)[C@H]1O)C(C)(C)O)[C@H]1CC[C@@]2(C)[C@@H]3CC=C4[C@@H](CC[C@H](O[C@@H]5O[C@H](CO[C@@H]6O[C@H](CO)[C@@H](O)[C@H](O)[C@H]6O)[C@@H](O)[C@H](O)[C@H]5O)C4(C)C)[C@]3(C)[C@H](O)C[C@]12C [Mogroside V, mogroside V] | 3.0 | 0.43 ± 0.02 | 94.5 ± 8.4 | – |
| COc1ccc(CCC(=O)c2c(O)cc(O[C@@H]3O[C@H](CO)[C@@H](O)[C@H](O)[C@H]3O[C@@H]3O[C@@H](C)[C@H](O)[C@@H](O)[C@H]3O)cc2O)cc1O [NHDC, neohesperidin dihydrochalcone] | 4.0 | 0.48 ± 0.02 | 203 ± 17.1 | – |
| COC(=O)[C@H](Cc1ccccc1)NC(=O)[C@H](CC(=O)O)NCCC(C)(C)C [Neotame] | 2.2 | 0.19 ± 0.01 | 2.7 ± 0.29 | – |
| C=C(C)[C@@H]1CC=C(/C=N/O)CC1 [Perillartine, perillartine] | 3.0 | 1.31 ± 0.21 | 41.1 ± 19.4 | – |

The remaining lines, values ahead:

| R1 = Variant EC50/WT EC50 | Max ΔF/F0 | EC50 (read-out: EC50) [µM] | EC50 (brazzein) [µg/mL] | Molecule |
| --- | --- | --- | --- | --- |
| 2.6 | 0.38 ± 0.04 | 103 ± 18 | – | C=C1C[C@@]23CC[C@H]4[C@@](C)(CCC[C@@]4(C)C(=O)O[C@@H]4O[C@H](CO)[C@@H](O)[C@H](O[C@@H]5O[C@H](CO)[C@@H](O)[C@H](O)[C@H]5O)[C@H]4O[C@@H]4O[C@H](CO)[C@@H](O)[C@H](O)[C@H]4O)[C@@H]2CC[C@]1(O[C@@H]1O[C@H](CO)[C@@H](O)[C@H](O[C@@H]2O[C@H](CO)[C@@H](O)[C@H](O)[C@H]2O)[C@H]1O[C@@H]1O[C@H](CO)[C@@H](O)[C@H](O)[C@H]1O)C3 [Rebaudioside M, rebaudioside M] |
| 2.6 | 0.11 ± 0.02 | 282 ± 101 | – | OC[C@H]1O[C@H](O[C@]2(CCl)O[C@H](CCl)[C@@H](O)[C@@H]2O)[C@H](O)[C@@H](O)[C@H]1Cl [Sucralose] |
| 2.0 | 0.68 ± 0.01 | – | 221.5 ± 11.3 | brazzein (QDKCKKVYENYPVSKCQLANQCNYDCKLDKHARSGECFYDEKRNLQCICDYCEY; ends and bridges not checked; cysteine pairing not given here; UniProt P56552 1-54, looked up) [sweet-tasting protein obtained by recombinant production using the yeast Pichia pastoris] |
| 1.6 | 0.38 ± 0.01 | – | – | thaumatin |
| – | – | 16.3 ± 0.9 | – | thaumatin (protein, Eight disulfides, sweet-tasting plant protein, E957) ATFEIVNRCSYTVWAAASKGDAALDAGGRQLNSGESWTINVEPGTKGGKIWARTDCYFDDSGSGICKTGDCGGLLRCKRFGRPPTTLAEFSLNQYGKDYIDISNIKGFNVPMDFSPTTRGCRGVRCAADIVGQCPAKLKAPGGGCNDACTVFQTSEYCCTTGKCGPTEYSRFFKRLCPDAFSYVLDKPTTVTCPGSSNYRVTFCPTA |
